Measured values as given in patent US9174992B2, “Heterobicyclic compounds” (Amgen Inc., priority 2012, dated 2015).

Target: PDE10A (UniProt Q9Y233)
Experiment: PDE10 enzyme inhibition, IMAP TR-FRET assay (Example A, MPDE10A7 Enzyme Activity and Inhibition)
Assay type: biochemical
Conditions: approximate IC50 value, Table 10
In short: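 Compounds were preincubated 60 min at room temperature with PDE10A enzyme or tissue homogenate, then fluorescein-labeled cAMP or cGMP was added for 90 min. After stopping with IMAP binding reagents, TR-FRET was read and IC50s were fitted with a four-parameter logistic equation.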

SMILES	IC50 [nM]
CC1(C)C(=O)N(C2CCN(c3nc4ccccc4s3)CC2)c2ncccc21 [Example 189, 1-(1-(benzo[d]thiazol-2-yl)piperidin-4-yl)-3,3-dimethyl-1H-pyrrolo[2,3-b]pyridin-2(3 H)-one]	1.99
CC1(C)C(=O)N(C2CCN(c3ccc4ccccc4n3)CC2)c2ncccc21 [Example 190, 3,3-dimethyl-1-(1-(quinolin-2-yl)piperidin-4-yl)-1H-pyrrolo[2,3-b]pyridin-2(3 H)-one]	0.695
CC1(C)C(=O)N(C2CCN(c3nc4ccc(F)cc4s3)CC2)c2ncccc21 [Example 191, 1-(1-(6-fluorobenzo[d]thiazol-2-yl)piperidin-4-yl)-3,3-dimethyl-1H-pyrrolo[2,3-b]pyridin-2(3 H)-one]	3.46
CC1(C)C(=O)N([C@H]2C[C@H](Nc3ccc4cc(F)ccc4n3)C2)c2nccnc21 [Example 192]	14.8
CC1(C)C(=O)N(C2CCN(c3ccc4ccc(F)cc4n3)CC2)c2ncccc21 [Example 193, 1-(1-(7-fluoroquinolin-2-yl)piperidin-4-yl)-3,3-dimethyl-1H-pyrrolo[2,3-b]pyridin-2(3 H)-one]	2.1
CC1(C)C(=O)N(C2CCN(c3ccc4cc(F)ccc4n3)CC2)c2ncccc21 [Example 194, 1-(1-(6-fluoroquinolin-2-yl)piperidin-4-yl)-3,3-dimethyl-1H-pyrrolo[2,3-b]pyridin-2(3 H)-one]	15.1
CC1(C)C(=O)Nc2nc([C@H]3C[C@H](Nc4ccc5ccc(F)cc5n4)C3)cnc21 [Example 195, 3-(trans-3-((7-fluoroquinolin-2-yl)amino)cyclobutyl)-7,7-dimethyl-5H-pyrrolo[2,3-b]pyrazin-6(7 H)-one]	0.938
Cn1c(=O)n([C@H]2C[C@H](Nc3nc4ccccc4o3)C2)c2ncc(F)cc21 [Example 196, 3-(Trans-3-(benzo[d]oxazol-2-ylamino)cyclobutyl)-6-fluoro-1-methyl-1H-imidazo[4,5-b]pyridin-2(3 H)-one]	4.2
CC1(C)C(=O)N([C@H]2C[C@H](Oc3nc4ccccc4s3)C2)c2nccnc21 [Example 197, 5-(trans-3-(benzo[d]thiazol-2-yloxy)cyclobutyl)-7,7-dimethyl-5H-pyrrolo[2,3-b]pyrazin-6(7H)-one]	1.77
CC1(C)C(=O)N(C2CCN(c3nc4ccccc4s3)CC2)c2nccnc21 [Example 198, 5-(1-(benzo[d]thiazol-2-yl)piperidin-4-yl)-7,7-dimethyl-5H-pyrrolo[2,3-b]pyrazin-6(7H)-one]	2.36
CC1(C)C(=O)N(C2CCN(c3ccc4cc(F)ccc4n3)CC2)c2nccnc21 [Example 199, 5-(1-(6-fluoroquinolin-2-yl)piperidin-4-yl)-7,7-dimethyl-5H-pyrrolo[2,3-b]pyrazin-6(7H)-one]	15.1
CC1(C)C(=O)N(C2CCN(c3ncc4ccc(Cl)cc4n3)CC2)c2nccnc21 [Example 200, 5-(1-(7-chloroquinazolin-2-yl)piperidin-4-yl)-7,7-dimethyl-5H-pyrrolo[2,3-b]pyrazin-6(7H)-one]	86.3
CC1(C)C(=O)N(C2CCN(c3ncc4cc(F)ccc4n3)CC2)c2nccnc21 [Example 201, 5-(1-(6-fluoroquinazolin-2-yl)piperidin-4-yl)-7,7-dimethyl-5H-pyrrolo[2,3-b]pyrazin-6(7H)-one]	3.48
CC1(C)C(=O)N(C2CCN(c3nc4ccc(C(F)(F)F)cc4s3)CC2)c2nccnc21 [Example 202, 7,7-dimethyl-5-(1-(6-(trifluoromethyl)benzo[d]thiazol-2-yl)piperidin-4-yl)-5H-pyrrolo[2,3-b]pyrazin-6(7H)-one]	68.8
Cc1csc(N[C@H]2C[C@H](N3C(=O)C(C)(C)c4cccnc43)C2)n1 [Example 203, 3,3-dimethyl-1-(trans-3-((4-methylthiazol-2-yl)amino)cyclobutyl)-1H-pyrrolo[2,3-b]pyridin-2(3H)-one]	109
CC1(C)C(=O)N([C@H]2C[C@H](Nc3ncc(-c4ccccc4)s3)C2)c2ncccc21 [Example 204, 3,3-dimethyl-1-(trans-3-((5-phenylthiazol-2-yl)amino)cyclobutyl)-1H-pyrrolo[2,3-b]pyridin-2(3H)-one]	2910
Cc1cnc(N[C@H]2C[C@H](N3C(=O)C(C)(C)c4cccnc43)C2)s1 [Example 205, 3,3-dimethyl-1-(trans-3-((5-methylthiazol-2-yl)amino)cyclobutyl)-1H-pyrrolo[2,3-b]pyridin-2(3H)-one]	13.2
Cn1c(=O)n([C@H]2C[C@H](Nc3ncc4ccccc4n3)C2)c2ncc(F)cc21 [Example 206, 6-fluoro-1-methyl-3-(trans-3-(quinazolin-2-ylamino)cyclobutyl)-1H-imidazo[4,5-b]pyridin-2(3H)-one]	7.65
CC1(C)C(=O)N([C@H]2C[C@H](Nc3ccc(Br)cn3)C2)c2nccnc21 [Example 207, 5-(trans-3-((5-bromopyridin-2-yl)amino)cyclobutyl)-7,7-dimethyl-5H-pyrrolo[2,3-b]pyrazin-6(7 H)-one]	2.39

Further lines, results first:

IC50 [nM]	SMILES
0.626	O=C1N([C@H]2C[C@H](Nc3nc4ccccc4s3)C2)c2ncc(F)cc2C1(F)F [Example 208, 1-(trans-3-(benzo[d]thiazol-2-ylamino)cyclobutyl)-3,3,5-trifluoro-1H-pyrrolo[2,3-b]pyridin-2(3H)-one]
0.88	Cn1c(=O)n([C@H]2C[C@H](Nc3nc4ccc(F)cc4s3)C2)c2ncc(F)cc21 [Example 209, 6-fluoro-3-(trans-3-((6-fluorobenzo[d]thiazol-2-yl)amino)cyclobutyl)-1-methyl-1H-imidazo[4,5-b]pyridin-2(3H)-one]
0.892	Cn1c(=O)n([C@H]2C[C@H](Nc3nc4cc(F)ccc4s3)C2)c2ncc(F)cc21 [Example 210, 6-fluoro-3-(trans-3-((5-fluorobenzo[d]thiazol-2-yl)amino)cyclobutyl)-1-methyl-1H-imidazo[4,5-b]pyridin-2(3 H)-one]
0.111	O=C1N([C@H]2C[C@H](Nc3nc4ccccc4s3)C2)c2ncc(Cl)cc2C1(F)F [Example 211, 1-(trans-3-(benzo[d]thiazol-2-ylamino)cyclobutyl)-5-chloro-3,3-difluoro-1H-pyrrolo[2,3-b]pyridin-2(3 H)-one]
0.449	O=C1N([C@H]2C[C@H](Nc3nc4ccccc4s3)C2)c2ncccc2C1(F)F [Example 212, 1-(trans-3-(benzo[d]thiazol-2-ylamino)cyclobutyl)-3,3-difluoro-1-H-pyrrolo[2,3-b]pyridin-2-(3H)-one]
2.87	CC1(C)C(=O)N([C@H]2C[C@H](Nc3nc4ccccc4o3)C2)c2nccnc21 [Example 214, 5-(trans-3-(benzo[d]oxazol-2-ylamino)cyclobutyl)-7,7-dimethyl-5H-pyrrolo[2,3-b]pyrazin-6(7H)-one]
0.978	CC1(C)C(=O)N([C@H]2C[C@@H](Nc3nc4ccccc4s3)C2)c2nccnc21 [Example 215, 5-(cis-3-(benzo[d]thiazol-2-ylamino)cyclobutyl)-7,7-dimethyl-5H-pyrrolo[2,3-b]pyrazin-6(7H)-one]
16.9	Cn1c(=O)n([C@H]2C[C@@H](Nc3nc4ccccc4s3)C2)c2nccnc21 [Example 216, 1-(cis-3-(benzo[d]thiazol-2-ylamino)cyclobutyl)-3-methyl-1H-imidazo[4,5-b]pyrazin-2(3H)-one]
